From ChEMBL document CHEMBL2177016 (J Med Chem, 2012)
Calls of active or inactive are those of the source. The calls are words filed in the database; no cut-off is given here.

What was measured:
[1] = biological target: T1, PROBABLE TRANSMEMBRANE CARBONIC ANHYDRASE (CARBONATE DEHYDRATASE) (CARBONIC DEHYDRATASE) (Mycobacterium tuberculosis, UniProt P96878)
T1 sequence (P96878 whole entry): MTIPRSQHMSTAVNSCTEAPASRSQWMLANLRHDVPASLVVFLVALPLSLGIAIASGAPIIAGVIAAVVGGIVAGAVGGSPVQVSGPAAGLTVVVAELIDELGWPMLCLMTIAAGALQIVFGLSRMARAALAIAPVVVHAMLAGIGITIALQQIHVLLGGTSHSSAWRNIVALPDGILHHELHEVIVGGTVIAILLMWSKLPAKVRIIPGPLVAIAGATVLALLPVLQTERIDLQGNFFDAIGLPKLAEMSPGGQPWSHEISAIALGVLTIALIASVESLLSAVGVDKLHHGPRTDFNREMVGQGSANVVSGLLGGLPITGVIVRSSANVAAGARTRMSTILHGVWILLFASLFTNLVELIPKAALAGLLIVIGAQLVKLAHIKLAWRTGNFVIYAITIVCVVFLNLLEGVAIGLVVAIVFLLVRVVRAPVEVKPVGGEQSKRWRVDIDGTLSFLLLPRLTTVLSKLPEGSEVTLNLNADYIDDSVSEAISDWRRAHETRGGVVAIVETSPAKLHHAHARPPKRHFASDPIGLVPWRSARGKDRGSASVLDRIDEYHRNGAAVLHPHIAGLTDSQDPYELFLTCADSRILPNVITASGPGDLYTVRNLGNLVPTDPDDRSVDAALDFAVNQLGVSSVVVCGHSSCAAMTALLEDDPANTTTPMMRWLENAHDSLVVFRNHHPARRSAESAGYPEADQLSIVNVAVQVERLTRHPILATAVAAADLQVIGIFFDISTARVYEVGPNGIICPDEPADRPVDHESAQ
Description: Inhibition of Mycobacterium tuberculosis recombinant carbonic anhydrase Rv3273 pre-incubated for 15 mins by stopped-flow CO2 hydration method

Carbonic anhydrase 3 = Carbonic anhydrase 3 (Homo sapiens, UniProt P07451)
Chain of Carbonic anhydrase 3 (P07451 whole entry): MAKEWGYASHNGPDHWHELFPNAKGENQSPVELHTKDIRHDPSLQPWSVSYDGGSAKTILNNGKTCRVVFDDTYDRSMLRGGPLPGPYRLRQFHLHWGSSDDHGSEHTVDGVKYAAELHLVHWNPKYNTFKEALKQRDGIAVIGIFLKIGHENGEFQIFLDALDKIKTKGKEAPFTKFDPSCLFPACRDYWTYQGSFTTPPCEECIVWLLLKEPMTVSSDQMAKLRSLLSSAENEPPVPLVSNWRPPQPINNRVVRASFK
Description: Inhibition of human recombinant full length CA3 pre-incubated for 15 mins by stopped-flow CO2 hydration method

[2] = biological target: T2, Beta-carbonic anhydrase 1 (Mycobacterium tuberculosis, UniProt P9WPJ7)
T2 sequence (P9WPJ7 whole entry): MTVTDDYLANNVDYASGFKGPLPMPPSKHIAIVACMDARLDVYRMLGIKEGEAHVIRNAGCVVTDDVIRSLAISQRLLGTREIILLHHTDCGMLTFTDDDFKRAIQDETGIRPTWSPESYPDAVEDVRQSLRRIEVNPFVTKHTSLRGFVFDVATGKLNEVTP
Description: Inhibition of Mycobacterium tuberculosis recombinant carbonic anhydrase Rv1284 pre-incubated for 15 mins by stopped-flow CO2 hydration method

Carbonic anhydrase 9 = Carbonic anhydrase 9 (Homo sapiens, UniProt Q16790)
Description: Inhibition of human recombinant CA9 catalytic domain pre-incubated for 15 mins by stopped-flow CO2 hydration method

[3] = biological target: T3, Prostaglandin G/H synthase 2 (Ovis aries) (UniProt P79208); experiment: Inhibition of ovine COX2 at 100 uM incubated for 5 mins by colorimetric assay
T3 sequence (whole entry): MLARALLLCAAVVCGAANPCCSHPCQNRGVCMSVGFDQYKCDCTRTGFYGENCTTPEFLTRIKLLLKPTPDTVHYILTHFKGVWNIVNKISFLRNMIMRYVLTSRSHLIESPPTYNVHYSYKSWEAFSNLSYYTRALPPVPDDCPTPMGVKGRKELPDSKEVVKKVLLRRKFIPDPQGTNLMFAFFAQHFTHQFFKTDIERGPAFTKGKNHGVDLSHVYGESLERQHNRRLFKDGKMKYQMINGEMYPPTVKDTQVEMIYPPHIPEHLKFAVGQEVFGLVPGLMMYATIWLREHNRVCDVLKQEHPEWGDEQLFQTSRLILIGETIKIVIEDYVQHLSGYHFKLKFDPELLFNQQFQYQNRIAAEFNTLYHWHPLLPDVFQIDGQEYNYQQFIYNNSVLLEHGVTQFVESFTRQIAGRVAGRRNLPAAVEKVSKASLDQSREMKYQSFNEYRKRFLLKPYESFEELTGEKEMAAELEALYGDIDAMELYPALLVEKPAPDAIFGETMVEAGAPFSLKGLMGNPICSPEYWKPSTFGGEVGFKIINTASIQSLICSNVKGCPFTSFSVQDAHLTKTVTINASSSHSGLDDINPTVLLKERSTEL

Carbonic anhydrase 2 = biological target: T4, Carbonic anhydrase 2 (Mycobacterium tuberculosis, UniProt P9WPJ9)
T4 sequence (P9WPJ9 whole entry): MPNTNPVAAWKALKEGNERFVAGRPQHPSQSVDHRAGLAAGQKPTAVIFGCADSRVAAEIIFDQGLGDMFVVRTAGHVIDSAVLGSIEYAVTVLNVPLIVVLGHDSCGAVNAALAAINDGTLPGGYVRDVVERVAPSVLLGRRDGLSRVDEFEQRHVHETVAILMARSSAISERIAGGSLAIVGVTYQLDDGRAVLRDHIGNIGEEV
Description: Inhibition of Mycobacterium tuberculosis recombinant carbonic anhydrase Rv3588c pre-incubated for 15 mins by stopped-flow CO2 hydration method

Compound | Ki [1] | Ki (Carbonic anhydrase 3) | Ki [2] | Ki (Carbonic anhydrase 9) | inhibition [3] | Ki (Carbonic anhydrase 2)
Cc1ccc(-c2cc(C(F)(F)F)nn2-c2ccc(S(N)(=O)=O)cc2)cc1 [CELECOXIB] | 7760 nM | 7400 nM | – | – | – | –
NS(=O)(=O)c1ccc(-n2ncc3c2-c2ccc(Cl)cc2SC3)cc1 | 316 nM | – | 412 nM | 1840 nM | inactive | 235 nM
NS(=O)(=O)c1ccc(-n2ncc3c2-c2ccc(C(F)(F)F)cc2SC3)cc1 | 238 nM | – | 613 nM | 2570 nM | inactive | 357 nM
Cc1ccc2c(n1)SCc1cnn(-c3ccc(S(N)(=O)=O)cc3)c1-2 | 241 nM | – | 115 nM | – | inactive | 144 nM
COc1ccc2c(c1)SCc1cnn(-c3ccc(S(N)(=O)=O)cc3)c1-2 | 750 nM | – | 870 nM | 2180 nM | inactive | 610 nM
NS(=O)(=O)c1ccc(-n2ncc3c2-c2cccnc2SC3)cc1 | 286 nM | – | 134 nM | 2340 nM | inactive | 273 nM
